In ChEMBL document CHEMBL1143112, “Three-component, one-pot synthesis of novel 2,4-substituted 5-azolylthiopyrimidine library for screening against anti-influenza virus A” (Bioorg Med Chem Lett, 2008):
Values after ≈ are worked out from the molar mass of the structure shown.

Legend:
[1] = Cytotoxicity against dog MDCK cells; assay type: cell-based, Canis lupus familiaris
Influenza B virus = test: Antiviral activity against influenza B virus expressed in dog MDCK cells assessed as reduction of virus-induced cytopathic effect; assay type: functional, organism-based
[2] = Selectivity index, CC50 for dog MDCK cells to IC50 for influenza A virus H3N2; assay type: functional

SMILES | CC50 [1] [µg/mL] | also measured
CC(C)(C)c1nccc(-c2ccccc2O)n1 | 16200 (≈ 71.2 mM) | 
NC(=O)c1ncn([C@@H]2O[C@H](CO)[C@@H](O)[C@H]2O)n1 [RIBAVIRIN] |  | IC50 (Influenza B virus): 4270 µg/mL (≈ 17.5 mM)
Cn1ccnc1Sc1cnc(C(C)(C)C)nc1-c1ccccc1O |  | Selectivity index [2]: 9
COc1ccc(O)c(-c2nc(SC)ncc2Sc2nccn2C)c1 | 7190 (≈ 19.9 mM) | 
CC(C)(C)c1ncc(Sc2nc[nH]n2)c(-c2cc(Cl)ccc2O)n1 | 9580 (≈ 26.5 mM) | 
